Results published in patent publication US20240092756A1, “METHODS AND COMPOSITION FOR KRAS MODIFICATIONS” (2692372 ONTARIO, INC., priority 2020, published 2024).

Assays:
[1] = biological target: KRAS G12C Lite (SEQ ID NO:3) (Homo sapiens, UniProt P01116, C118S/C51S/C80S/G12C/S136P/S39C); assay: Intact mass analysis (LC-MS) of covalent modification, KRAS G12C Lite; format: binding; design: key to KRAS Lite Modification: a: KRAS Lite modified; details: intact mass spectrometry; covalent modification of KRAS G12C Lite
Summary of the method: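 Protein (2 μM) reacted with compound (100 μM) for 24 h at 25° C in 20 mM HEPES pH 8, 150 mM NaCl, 2% DMSO, 2% glycerol, then analysed by intact-mass LC-MS (C4 column, positive-ion TOF). Up to 8 cysteine adducts allowed on deconvolution; adducts <2% of base peak ignored. % modification = adduct intensity over total protein plus adduct intensities.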

[2] = biological target: T1, KRAS G12C (SEQ ID NO:1 or SEQ ID NO:2) (Homo sapiens, UniProt P01116, G12C); assay: Intact mass analysis (LC-MS) of covalent modification, KRAS G12C; format: binding; design: key to KRAS G12C Modification: b: KRAS G12C modified; details: intact mass spectrometry; covalent modification of KRAS G12C FL
T1 construct: purchased
Procedure: The covalent modification of the proteins with the compounds were evaluated using intact mass analysis by liquid chromatography-mass spectrometry instrument (LC-MS/MS).
The reaction solution (20 μL) was prepared in 96-well plate and contained the protein (2 μM), the compound (100 μM), HEPES buffer (20 mM, pH 8), 2% DMSO, 2% glycerol, and 150 mM NaCl. The reaction was allowed to proceed for 24 h at 25° C. The reaction solution (1 μL) was injected into the LC/MS/MS without any further sample preparation.
The LC-MS/MS instrument comprises of a Waters G2-XS quadrupole-time of flight (QTof) mass spectrometer and a Waters Acuity I-class Ultra-High Performance Liquid Chromatography (UPLC) system. The I-class UPLC system includes a binary solvent manager (BSM), and an Acquity sample manager (SM). The mobile phase consisted of: A) 0.1% (v/v) formic acid in MilliQ water; B) 0.1% (v/v) formic acid acetonitrile. Gradients were run over 5 min and proceeded as follows: A:B, 85:15, 0.0-0.7 min, 85:15→15:85, 0.7-1.5 min, 10:90, 1.5-4 min, 10:90→85:15, 4-4.5 min, 85:15, 4.5-5 min. The analytical column was a Waters BEH C4 column 1.7 μm (50×1 mm) column with pore sizes of 300 Å. The TOF MS data was collected in positive ion mode (m/z of 400-2000 Da) using MassLynx software (Waters).
The spectral deconvolution was performed using UNIFI software (Waters). The added mass of the protein upon covalent modification to cysteine residues were specified. Multiple modification of up to 8 cysteine was allowed. All the adducts with signal intensities of <2% of the base peak were ignored. The % modification was calculated as the adduct signal intensity over the total intensities of the protein peaks and the adducts.

KRAS G12C Lite = KRAS G12C Lite (Homo sapiens, UniProt P01116, C118S/C51S/C80S/G12C/S136P/S39C); assay: Differential scanning fluorimetry, KRAS G12C Lite; format: binding; design: key: Y: protein destabilized; N: protein not destabilized; details: 37° C. 5 hours incubation
Procedure: KRas proteins at 0.05 mg/ml in buffer Hepes, 147 mM NaCl, 2% glycerol, 5 mM MgCl2, 1 mM EDTA, 10 μM GDP, pH 8.0 were incubated in the presence desired concentration of compounds (5% DMSO final concentration) at 37° C. for 5 hours. After incubation, Sypro Oange to a final concentration of 5× was added to each sample. 20 μl aliquots of samples were transferred PCR tubes, sealed with caps, and run in a BioRad CFX96 RTPCR thermocycler. In the instrument, the samples were heated at a rate of 1° C./min from 25 to 90 degrees. Fluorescence readings were taken every 1 degree. The data generated was exported and analyzed using GraphPad-Prism software. The denaturation curves were fit using a Boltzmann sigmoidal equation to calculate melting temperatures (Tm).

KRAS G12C = KRAS G12C (Homo sapiens, UniProt P01116, G12C); assay: SOS1-catalyzed KRAS coupled nucleotide exchange assay (Alpha technology); format: biochemical; design: His; key: A: KRAS G12C bound and modulated; details: inhibition of SOS1 mediated KRAS nucleotide exchange
Summary of the method: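 Alpha readout of c-RAF RBD binding to GTP-bound KRAS, normalized to DMSO. Method I: 20 nM GDP-KRAS G12C/C118A with compound 5 min, then 1.25 mM GTP + 500 nM SOS-1 30 min, pH 7.4 HEPES/MgCl2 buffer, 50 nM RBD. Method II: 50 nM GDP-KRAS G12C with compound 2 h, 1 mM GTP + 500 nM SOS-1 30 min, 2.5 nM GST-RBD; RT throughout.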

KRAS Lite Modification [1]	KRAS G12C Modification [2]	KRAS G12C Lite DSF ΔTm (KRAS G12C Lite)	KRAS-SOS1 Nucleotide Exchange (KRAS G12C)	SMILES
a	b	Y	A	Cc1ccnc(C(C)C)c1-n1c(=O)nc(NC2CN(S(=O)(=O)c3c(F)c(F)c(F)c(F)c3C(F)(F)F)C2)c2cc(F)c(-c3c(O)cccc3F)nc21 [Compound 15A, 6-fluoro-7-(2-fluoro-6-hydroxyphenyl)-1-(2-isopropyl-4-methylpyridin-3-yl)-4-((1-((2,3,4,5-tetrafluoro-6-(trifluoromethyl)phenyl)sulfonyl)azetidin-3-yl)amino)pyrido[2,3-d]pyrimidin-2(1H)-one]
a	b	Y	A	Cc1ccnc(C(C)C)c1-n1c(=O)nc(NC2CN(S(=O)(=O)c3c(F)c(F)c(F)c(F)c3C(F)(F)F)C2)c2cc(F)c(Cl)nc21 [Compound 14A, 7-chloro-6-fluoro-1-(2-isopropyl-4-methylpyridin-3-yl)-4-((1-((2,3,4,5-tetrafluoro-6-(trifluoromethyl)phenyl)sulfonyl)azetidin-3-yl)amino)pyrido[2,3-d]pyrimidin-2(1H)-one]
